The source made the active and inactive calls. How the calls were made is not given here.
Tested on: CCRIS mutagenicity, Ames/micronucleus/aberration tests
Test: CCRIS mutagenicity studies
[1] = Test System: AMES SALMONELLA TYPHIMURIUM, Strain/Indicator: TA100, Metabolic Activation: NONE, Method: STANDARD PLATE
[2] = Test System: AMES SALMONELLA TYPHIMURIUM, Strain/Indicator: TA1535, Metabolic Activation: NONE, Method: STANDARD PLATE

Q: For C=CC(=O)NCNC(=O)C=C, which mutagenic call (Test System: AMES SALMONELLA TYPHIMURIUM, Strain/Indicator: TA97, Metabolic Activation: HAMSTER, LIVER, S-9, AROCLOR 1254 (10%), Method: PREINCUBATION) is on record?
A: Its mutagenic call is “inactive; negative”.

Q: And the mutagenic call (Test System: AMES SALMONELLA TYPHIMURIUM, Strain/Indicator: TA97, Metabolic Activation: NONE, Method: PREINCUBATION)?
A: Its mutagenic call is “inactive; negative”.

Q: And the mutagenic call (Test System: AMES SALMONELLA TYPHIMURIUM, Strain/Indicator: TA97, Metabolic Activation: RAT, LIVER, S-9, AROCLOR 1254 (10%), Method: PREINCUBATION)?
A: The mutagenic call was “inactive; negative”.

Q: What about the mutagenic call (Test System: AMES SALMONELLA TYPHIMURIUM, Strain/Indicator: TA98, Metabolic Activation: HAMSTER, LIVER, S-9, AROCLOR 1254 (10%), Method: PREINCUBATION) of the same molecule?
A: Its mutagenic call is “inactive; negative”.

Q: And the mutagenic call (Test System: AMES SALMONELLA TYPHIMURIUM, Strain/Indicator: TA98, Metabolic Activation: NONE, Method: PREINCUBATION)?
A: The mutagenic call was “inactive; negative”.

Q: And the mutagenic call (Test System: AMES SALMONELLA TYPHIMURIUM, Strain/Indicator: TA98, Metabolic Activation: RAT, LIVER, S-9, AROCLOR 1254 (10%), Method: PREINCUBATION)?
A: Its mutagenic call is “inactive; negative”.

Q: And the mutagenic call (Test System: AMES SALMONELLA TYPHIMURIUM, Strain/Indicator: TA100, Metabolic Activation: HAMSTER, LIVER, S-9, AROCLOR 1254 (5, 10 OR 30%), Method: PREINCUBATION)?
A: Its mutagenic call is “inactive; negative”.

Q: And the mutagenic call (Test System: AMES SALMONELLA TYPHIMURIUM, Strain/Indicator: TA100, Metabolic Activation: NONE, Method: PREINCUBATION)?
A: Its mutagenic call is “inactive; negative”.

Q: What about the mutagenic call (Test System: AMES SALMONELLA TYPHIMURIUM, Strain/Indicator: TA100, Metabolic Activation: RAT, LIVER, S-9, AROCLOR 1254 (10%), Method: PREINCUBATION) of the same molecule?
A: The mutagenic call was “inactive; negative”.

Q: And the mutagenic call (Test System: AMES SALMONELLA TYPHIMURIUM, Strain/Indicator: TA1535, Metabolic Activation: HAMSTER, LIVER, S-9, AROCLOR 1254 (10%), Method: PREINCUBATION)?
A: Its mutagenic call is “active; positive”.

Q: And the mutagenic call (Test System: AMES SALMONELLA TYPHIMURIUM, Strain/Indicator: TA1535, Metabolic Activation: NONE, Method: PREINCUBATION)?
A: Its mutagenic call is “inactive; negative”.

Q: And the mutagenic call (Test System: AMES SALMONELLA TYPHIMURIUM, Strain/Indicator: TA1535, Metabolic Activation: RAT, LIVER, S-9, AROCLOR 1254 (10%), Method: PREINCUBATION)?
A: The mutagenic call was “inactive; negative”.

Q: Which mutagenic call [1] does the source give for c1ccc([C@H]2O[C@@H]2c2ccccc2)cc1 here?
A: The mutagenic call was “inactive; negative”.

Q: What about the mutagenic call [2] of the same molecule?
A: The mutagenic call was “inactive; negative”.

Q: With CN(C)C(=O)c1nc(CNC(=O)CN)n(-c2ccc(Cl)cc2C(=O)c2ccccc2Cl)n1 as the molecule, how does the mutagenic call (Test System: AMES SALMONELLA TYPHIMURIUM, Strain/Indicator: TA98, Metabolic Activation: NONE, Method: STANDARD PLATE) read?
A: The mutagenic call was “inactive; negative”.

Q: And the mutagenic call (Test System: AMES SALMONELLA TYPHIMURIUM, Strain/Indicator: TA98, Metabolic Activation: RAT, LIVER, S-9, AROCLOR 1254, Method: STANDARD PLATE)?
A: Its mutagenic call is “inactive; negative”.

Q: What about the mutagenic call [1] of the same molecule?
A: Its mutagenic call is “inactive; negative”.

Q: What about the mutagenic call (Test System: AMES SALMONELLA TYPHIMURIUM, Strain/Indicator: TA100, Metabolic Activation: RAT, LIVER, S-9, AROCLOR 1254, Method: STANDARD PLATE) of the same molecule?
A: The mutagenic call was “inactive; negative”.

Q: And the mutagenic call (Test System: AMES SALMONELLA TYPHIMURIUM, Strain/Indicator: TA102, Metabolic Activation: NONE, Method: STANDARD PLATE)?
A: Its mutagenic call is “inactive; negative”.

Q: What about the mutagenic call (Test System: AMES SALMONELLA TYPHIMURIUM, Strain/Indicator: TA102, Metabolic Activation: RAT, LIVER, S-9, AROCLOR 1254, Method: STANDARD PLATE) of the same molecule?
A: The mutagenic call was “inactive; negative”.

Q: And the mutagenic call [2]?
A: The mutagenic call was “inactive; negative”.

Q: What about the mutagenic call (Test System: AMES SALMONELLA TYPHIMURIUM, Strain/Indicator: TA1535, Metabolic Activation: RAT, LIVER, S-9, AROCLOR 1254, Method: STANDARD PLATE) of the same molecule?
A: Its mutagenic call is “inactive; negative”.

Q: And the mutagenic call (Test System: AMES SALMONELLA TYPHIMURIUM, Strain/Indicator: TA1537, Metabolic Activation: NONE, Method: STANDARD PLATE)?
A: The mutagenic call was “inactive; negative”.

Q: And the mutagenic call (Test System: AMES SALMONELLA TYPHIMURIUM, Strain/Indicator: TA1537, Metabolic Activation: RAT, LIVER, S-9, AROCLOR 1254, Method: STANDARD PLATE)?
A: Its mutagenic call is “inactive; negative”.

Q: What about the mutagenic call (Test System: E. COLI, Strain/Indicator: WP2 UVRA, Metabolic Activation: NONE, Method: STANDARD PLATE) of the same molecule?
A: Its mutagenic call is “inactive; negative”.

Q: And the mutagenic call (Test System: E. COLI, Strain/Indicator: WP2 UVRA, Metabolic Activation: RAT, LIVER, S-9, AROCLOR 1254, Method: STANDARD PLATE)?
A: The mutagenic call was “inactive; negative”.

Q: O=C(N=c1sn(C(=O)c2ccccc2[N+](=O)[O-])c2ccc([N+](=O)[O-])cc12)c1ccccc1[N+](=O)[O-] was tested. Which mutagenic call (Test System: AMES SALMONELLA TYPHIMURIUM, Strain/Indicator: TA100, Metabolic Activation: S-9, Method: STANDARD PLATE) did it give?
A: Its mutagenic call is “active; positive”.

Q: With COc1nsc2cc(N)ccc12 as the molecule, how does the mutagenic call (Test System: AMES SALMONELLA TYPHIMURIUM, Strain/Indicator: TA98, Metabolic Activation: S-9, Method: STANDARD PLATE) read?
A: Its mutagenic call is “active; positive”.

Reference: PubChem BioAssay AID1259407 (Chemical Carcinogenesis Research Information System (CCRIS), 2018)
